Reference: ChEMBL document CHEMBL1138245, “Discovery of N1-(6-chloroimidazo[2,1-b][1,3]thiazole-5-sulfonyl)tryptamine as a potent, selective, and orally active 5-HT(6) receptor agonist” (J Med Chem, 2007)

Columns and labels:
[1] = target: T1, 5-hydroxytryptamine receptor 6 (Homo sapiens, UniProt P50406); assay: Displacement of [3H]LSD from human 5HT6 receptor expressed in HeLa cells; assay type: cell-based
[2] = target: T1, 5-hydroxytryptamine receptor 6; assay: Agonist activity at human 5HT6 receptor expressed in HeLa cells assessed as cAMP production; assay type: functional, cell-based

T1 sequence (P50406 whole entry): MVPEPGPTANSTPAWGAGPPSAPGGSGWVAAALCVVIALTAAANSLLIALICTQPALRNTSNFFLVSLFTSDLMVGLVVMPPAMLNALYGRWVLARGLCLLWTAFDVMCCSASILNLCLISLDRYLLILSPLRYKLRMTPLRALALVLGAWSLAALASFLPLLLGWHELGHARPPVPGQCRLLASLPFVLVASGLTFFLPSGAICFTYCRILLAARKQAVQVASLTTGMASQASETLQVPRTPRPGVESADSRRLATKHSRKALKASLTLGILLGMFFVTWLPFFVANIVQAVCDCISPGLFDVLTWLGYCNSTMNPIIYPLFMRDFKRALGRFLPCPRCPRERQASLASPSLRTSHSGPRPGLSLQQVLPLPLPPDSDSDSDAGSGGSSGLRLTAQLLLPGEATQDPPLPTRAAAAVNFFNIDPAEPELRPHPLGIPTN

Row | Compound | Ki [1] [nM] | EC50 [2] [nM] | Emax [2] [%]
1 | NCCc1cn(S(=O)(=O)c2ccc(Cl)s2)c2ccccc12 | 6 | 181 | 100
2 | NCCc1cn(S(=O)(=O)c2ccc(Cl)c(Cl)c2)c2ccccc12 | 30 | – | –
3 | NCCc1cn(S(=O)(=O)c2ccc(F)cc2)c2ccccc12 | 21 | – | –
4 | COc1ccc(S(=O)(=O)n2cc(CCN)c3ccccc32)cc1 | 47 | – | –
